Test system: Vero (Monkey kidney transformed epithelial cell line (normal))
Assay: SRB/MTT assay, normal Vero cells
Assay type: cell-based
Experimental: The anticancer effect of DSePA was evaluated using a panel of twenty-five human cancer cell lines of different tissue origins. Cells were treated with the increasing concentrations (0.1-100 μM) of DSePA for 48 h and viability was monitored by (Sulforhodamine B) SRB assay or MTT assay.
Cell culture and DSePA synthesis—DSePA was synthesized and characterized as described in our previous reports. Cell lines were cultured in growth medium (DMEM/RPMI) supplemented with 10% FBS, 100 U/ml penicillin and 100 μg/ml streptomycin at 37° C. in a humidified 5% CO2 environment. The stock solution of DSePA was prepared fresh in cell culture medium and diluted with the same to achieve the desired concentrations.
SRB/MTT Assay—To evaluate the anti-proliferative effect of DSePA, Cells (˜5×10^3) suspended in 100 μl of complete culture medium were seeded in each well of 96 well plates. The cells were allowed to attach and grow for 24 h, treated with desired concentrations of DSePA dissolved in culture medium for 48 h and then processed for SRB/MTT assay as described in literature. The percentage (%) cytotoxicity was calculated from the decrease in absorbance as compared to that of control group.

## O=C(O)CC[Se][Se]CCC(=O)O [DSePA, 3,3′-diselenodipropionic acid]
Primates, Vero normal cells, 48 hours treatment, SRB/MTT assay, read-out: GI50 (Concentration of drug causing 50% inhibition of cell growth)
  GI50: > 100 µM
Vero, 0.1-100 μM, 48 h
  toxicity in normal cell types: did not show toxicity
